Source: US20110182982A1, “LIPOSOME TREATMENT OF VIRAL INFECTIONS” (University of Oxford, priority 2006, published 2011)

Tests used:
Experiment in all cases: p24 secretion of HIV-1-infected PBMCs
Assay type in all cases: cell-based
Settings in all cases: for % p24 secretion Week 1-rb / % p24 secretion Week 2-rb / % p24 secretion Week 3-rb / % p24 secretion Week 4-rb: treatment removed 2 weeks
HIV-1 isolate: 93IN101 = system: HIV-1 isolate: 93IN101
Experimental: (§1) Clearance of HIV-1 primary isolates from infected human cells by NB-DNJ was assessed using phytohemagglutinin (PHA)-activated peripheral blood mononuclear cells (PBMCs) as indicator cells and the determination of p24 antigen production as the end point.
(§2) PBMCs from four normal (uninfected) donors were isolated, pooled, and stimulated with PHA (5 μg/ml) for 48 h followed by PHA plus interleukin-2 (40 U/ml) for 72 h in RPMI 1640 medium containing 10% heat-inactivated fetal bovine serum (FBS), 100 U of penicillin per ml, 100 μg of streptomycin per ml, and 2 mM L-glutamine. All experiments were performed in 96-well microtiter plates. To infect cells, 100 μl of PHA-activated PBMCs (5×10^5/ml) was added to each well, after which an equal volume containing 100 50% tissue culture infective doses (TCID50) of primary isolate stock was added. After an overnight incubation, the cells were washed three times with tissue culture medium, and finally re-suspended in medium containing the appropriate liposome treatment or free NB-DNJ. On day 7, approximately 10-30% of the culture volume containing secreted HIV-1 virions was used to infect naïve PBMCs for a second round of infection and treatment (volume transferred was calculated to be the volume necessary for the untreated control of that isolate to infect naïve cells at a TCID50=100). Rounds of treatment and infection of naïve cells were continued over four weeks, and at every time point cellular supernatant containing secreted virions was isolated and used in capture ELISAs to determine p24 concentration (measure of secretion). Additionally, supernatant isolated at each time point throughout treatment was used to infect naïve PBMCs (TCID50=100) for two weeks with no further treatment, which allowed for the observation of a rebound in viral activity.
(§3) PBMCs infected with 8 primary isolates (listed in Table 3) were incubated in the presence of free NB-DNJ (concentrations ranging 0-1 mM) or liposome-encapsulated NB-DNJ (0-3.75 μM, final lipid concentration of 50 μM).

HIV-1 isolate: BR93020 = system: HIV-1 isolate: BR93020
Experimental: as §1, §2, §3

HIV-1 isolate: HT92599 = system: HIV-1 isolate: HT92599
Experimental: as §1, §2, §3

HIV-1 isolate: UG92046 = system: HIV-1 isolate: UG92046
Experimental: as §1, §2, §3

[1] = 1 mM free in medium, first week
[2] = Human immunodeficiency virus 1, PBMC, free, three rounds of treatment

CCCCN1C[C@H](O)[C@@H](O)[C@H](O)[C@H]1CO [NB-DNJ, N-butyl-1,5-dideoxy-1,5-imino-D-glucitol]
decrease in secretion (HIV-1 isolate: 93IN101; [1]): 50% | % p24 secretion Week 1 (HIV-1 isolate: 93IN101; NB-DNJ 250 uM): 106% | % p24 secretion Week 2 (HIV-1 isolate: 93IN101; NB-DNJ 250 uM): 81% | % p24 secretion Week 3 (HIV-1 isolate: 93IN101; NB-DNJ 250 uM): 78% | % p24 secretion Week 4 (HIV-1 isolate: 93IN101; NB-DNJ 250 uM): 66% | % p24 secretion Week 1-rb (HIV-1 isolate: 93IN101; NB-DNJ 250 uM): 96% | % p24 secretion Week 2-rb (HIV-1 isolate: 93IN101; NB-DNJ 250 uM): 88% | % p24 secretion Week 3-rb (HIV-1 isolate: 93IN101; NB-DNJ 250 uM): 81% | % p24 secretion Week 4-rb (HIV-1 isolate: 93IN101; NB-DNJ 250 uM): 72% | % p24 secretion Week 1 (HIV-1 isolate: 93IN101; NB-DNJ 500 uM): 75% | % p24 secretion Week 2 (HIV-1 isolate: 93IN101; NB-DNJ 500 uM): 45% | % p24 secretion Week 3 (HIV-1 isolate: 93IN101; NB-DNJ 500 uM): 7% | % p24 secretion Week 4 (HIV-1 isolate: 93IN101; NB-DNJ 500 uM): 2% | % p24 secretion Week 1-rb (HIV-1 isolate: 93IN101; NB-DNJ 500 uM): 88% | % p24 secretion Week 2-rb (HIV-1 isolate: 93IN101; NB-DNJ 500 uM): 37% | % p24 secretion Week 3-rb (HIV-1 isolate: 93IN101; NB-DNJ 500 uM): 11% | % p24 secretion Week 4-rb (HIV-1 isolate: 93IN101; NB-DNJ 500 uM): 0% | % p24 secretion Week 1 (HIV-1 isolate: 93IN101; NB-DNJ 1000 uM): 67% | % p24 secretion Week 2 (HIV-1 isolate: 93IN101; NB-DNJ 1000 uM): 17% | % p24 secretion Week 3 (HIV-1 isolate: 93IN101; NB-DNJ 1000 uM): 3% | % p24 secretion Week 4 (HIV-1 isolate: 93IN101; NB-DNJ 1000 uM): 0% | % p24 secretion Week 1-rb (HIV-1 isolate: 93IN101; NB-DNJ 1000 uM): 51% | % p24 secretion Week 2-rb (HIV-1 isolate: 93IN101; NB-DNJ 1000 uM): 4% | % p24 secretion Week 3-rb (HIV-1 isolate: 93IN101; NB-DNJ 1000 uM): 1% | % p24 secretion Week 4-rb (HIV-1 isolate: 93IN101; NB-DNJ 1000 uM): 0% | IC50 (HIV-1 isolate: BR93020; [2]): 250 µM | IC90 (HIV-1 isolate: BR93020; [2]): 375 µM | % p24 secretion Week 1 (HIV-1 isolate: BR93020; NB-DNJ 250 uM): 89% | % p24 secretion Week 2 (HIV-1 isolate: BR93020; NB-DNJ 250 uM): 74% | % p24 secretion Week 3 (HIV-1 isolate: BR93020; NB-DNJ 250 uM): 53% | % p24 secretion Week 4 (HIV-1 isolate: BR93020; NB-DNJ 250 uM): 55% | % p24 secretion Week 1-rb (HIV-1 isolate: BR93020; NB-DNJ 250 uM): 97% | % p24 secretion Week 2-rb (HIV-1 isolate: BR93020; NB-DNJ 250 uM): 77% | % p24 secretion Week 3-rb (HIV-1 isolate: BR93020; NB-DNJ 250 uM): 71% | % p24 secretion Week 4-rb (HIV-1 isolate: BR93020; NB-DNJ 250 uM): 59% | % p24 secretion Week 1 (HIV-1 isolate: BR93020; NB-DNJ 500 uM): 60% | % p24 secretion Week 2 (HIV-1 isolate: BR93020; NB-DNJ 500 uM): 19% | % p24 secretion Week 3 (HIV-1 isolate: BR93020; NB-DNJ 500 uM): 1% | % p24 secretion Week 4 (HIV-1 isolate: BR93020; NB-DNJ 500 uM): 1% | % p24 secretion Week 1-rb (HIV-1 isolate: BR93020; NB-DNJ 500 uM): 68% | % p24 secretion Week 2-rb (HIV-1 isolate: BR93020; NB-DNJ 500 uM): 3% | % p24 secretion Week 3-rb (HIV-1 isolate: BR93020; NB-DNJ 500 uM): 0% | % p24 secretion Week 4-rb (HIV-1 isolate: BR93020; NB-DNJ 500 uM): 1% | % p24 secretion Week 1 (HIV-1 isolate: BR93020; NB-DNJ 1000 uM): 58% | % p24 secretion Week 2 (HIV-1 isolate: BR93020; NB-DNJ 1000 uM): 2% | % p24 secretion Week 3 (HIV-1 isolate: BR93020; NB-DNJ 1000 uM): 0% | % p24 secretion Week 4 (HIV-1 isolate: BR93020; NB-DNJ 1000 uM): 0% | % p24 secretion Week 1-rb (HIV-1 isolate: BR93020; NB-DNJ 1000 uM): 44% | % p24 secretion Week 2-rb (HIV-1 isolate: BR93020; NB-DNJ 1000 uM): 0% | % p24 secretion Week 3-rb (HIV-1 isolate: BR93020; NB-DNJ 1000 uM): 0% | % p24 secretion Week 4-rb (HIV-1 isolate: BR93020; NB-DNJ 1000 uM): 0% | reduction in viral secretion (HIV-1 isolate: HT92599; [1]): 50% | % p24 secretion Week 1 (HIV-1 isolate: HT92599; NB-DNJ 250 uM): 99% | % p24 secretion Week 2 (HIV-1 isolate: HT92599; NB-DNJ 250 uM): 84% | % p24 secretion Week 3 (HIV-1 isolate: HT92599; NB-DNJ 250 uM): 88% | % p24 secretion Week 4 (HIV-1 isolate: HT92599; NB-DNJ 250 uM): 81% | % p24 secretion Week 1-rb (HIV-1 isolate: HT92599; NB-DNJ 250 uM): 93% | % p24 secretion Week 2-rb (HIV-1 isolate: HT92599; NB-DNJ 250 uM): 99% | % p24 secretion Week 3-rb (HIV-1 isolate: HT92599; NB-DNJ 250 uM): 95% | % p24 secretion Week 4-rb (HIV-1 isolate: HT92599; NB-DNJ 250 uM): 88% | % p24 secretion Week 1 (HIV-1 isolate: HT92599; NB-DNJ 500 uM): 53% | % p24 secretion Week 2 (HIV-1 isolate: HT92599; NB-DNJ 500 uM): 19% | % p24 secretion Week 3 (HIV-1 isolate: HT92599; NB-DNJ 500 uM): 8% | % p24 secretion Week 4 (HIV-1 isolate: HT92599; NB-DNJ 500 uM): 1% | % p24 secretion Week 1-rb (HIV-1 isolate: HT92599; NB-DNJ 500 uM): 67% | % p24 secretion Week 2-rb (HIV-1 isolate: HT92599; NB-DNJ 500 uM): 27% | % p24 secretion Week 3-rb (HIV-1 isolate: HT92599; NB-DNJ 500 uM): 17% | % p24 secretion Week 4-rb (HIV-1 isolate: HT92599; NB-DNJ 500 uM): 1% | % p24 secretion Week 1 (HIV-1 isolate: HT92599; NB-DNJ 1000 uM): 55% | % p24 secretion Week 2 (HIV-1 isolate: HT92599; NB-DNJ 1000 uM): 10% | % p24 secretion Week 3 (HIV-1 isolate: HT92599; NB-DNJ 1000 uM): 3% | % p24 secretion Week 4 (HIV-1 isolate: HT92599; NB-DNJ 1000 uM): 0% | % p24 secretion Week 1-rb (HIV-1 isolate: HT92599; NB-DNJ 1000 uM): 52% | % p24 secretion Week 2-rb (HIV-1 isolate: HT92599; NB-DNJ 1000 uM): 15% | % p24 secretion Week 3-rb (HIV-1 isolate: HT92599; NB-DNJ 1000 uM): 6% | % p24 secretion Week 4-rb (HIV-1 isolate: HT92599; NB-DNJ 1000 uM): 1% | % p24 secretion Week 1 (HIV-1 isolate: UG92046; NB-DNJ 250 uM): 91% | % p24 secretion Week 2 (HIV-1 isolate: UG92046; NB-DNJ 250 uM): 115% | % p24 secretion Week 3 (HIV-1 isolate: UG92046; NB-DNJ 250 uM): 91% | % p24 secretion Week 4 (HIV-1 isolate: UG92046; NB-DNJ 250 uM): 79% | % p24 secretion Week 1-rb (HIV-1 isolate: UG92046; NB-DNJ 250 uM): 99% | % p24 secretion Week 2-rb (HIV-1 isolate: UG92046; NB-DNJ 250 uM): 92% | % p24 secretion Week 3-rb (HIV-1 isolate: UG92046; NB-DNJ 250 uM): 94% | % p24 secretion Week 4-rb (HIV-1 isolate: UG92046; NB-DNJ 250 uM): 89% | % p24 secretion Week 1 (HIV-1 isolate: UG92046; NB-DNJ 500 uM): 79% | % p24 secretion Week 2 (HIV-1 isolate: UG92046; NB-DNJ 500 uM): 39% | % p24 secretion Week 3 (HIV-1 isolate: UG92046; NB-DNJ 500 uM): 10% | % p24 secretion Week 4 (HIV-1 isolate: UG92046; NB-DNJ 500 uM): 0% | % p24 secretion Week 1-rb (HIV-1 isolate: UG92046; NB-DNJ 500 uM): 75% | % p24 secretion Week 2-rb (HIV-1 isolate: UG92046; NB-DNJ 500 uM): 43% | % p24 secretion Week 3-rb (HIV-1 isolate: UG92046; NB-DNJ 500 uM): 15% | % p24 secretion Week 4-rb (HIV-1 isolate: UG92046; NB-DNJ 500 uM): 0% | % p24 secretion Week 1 (HIV-1 isolate: UG92046; NB-DNJ 1000 uM): 64% | % p24 secretion Week 2 (HIV-1 isolate: UG92046; NB-DNJ 1000 uM): 15% | % p24 secretion Week 3 (HIV-1 isolate: UG92046; NB-DNJ 1000 uM): 3% | % p24 secretion Week 4 (HIV-1 isolate: UG92046; NB-DNJ 1000 uM): 0% | % p24 secretion Week 1-rb (HIV-1 isolate: UG92046; NB-DNJ 1000 uM): 64% | % p24 secretion Week 2-rb (HIV-1 isolate: UG92046; NB-DNJ 1000 uM): 21% | % p24 secretion Week 3-rb (HIV-1 isolate: UG92046; NB-DNJ 1000 uM): 1% | % p24 secretion Week 4-rb (HIV-1 isolate: UG92046; NB-DNJ 1000 uM): 0%
